Test results as given in ChEMBL document CHEMBL1201862, “PubChem BioAssay data set” (2004).
Calls of active or inactive are those of the source.

What was measured:
[1] = A Cell Based Secondary Assay To Explore Cytotoxicity of Compounds that Sensitize Mycobacterium Tuberculosis to Beta-Lactam Antibiotics.; type: functional
[2] = ZM109 Env clade C HIV-1 fusion inhibitors, dose response, HeLa effector, CEM target cells, luciferase, cherry-pick (AID 652058); type: functional, cell-based
[3] = inhibitors of clade B AD8 Env fusion, dose response, cell-based, cherry-pick (AID 652062); type: functional;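 further: luciferase signal from cell-cell fusion driven by HIV-1 clade B AD8 Env; potency is for inhibitors of fusion seen as a drop in luminescence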
[4] = growth suppression of PTEN-null colon cells, dose response, cell-based, HCT116 PTEN knockout (AID 1047); type: functional;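 further: HCT116 colon tumor cells with PTEN knocked out; cells exposed to compound for 60 hours before readout; potency for loss of cell viability measured by luminescence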
[5] = growth suppression of beta-catenin-knockout colon cells, dose response, cell-based, HCT116, human colon tumor (AID 1045); type: functional;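 further: HCT116 colon tumor cells with beta catenin knocked out; cells exposed to compound for 60 hours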
Vero = assay: cells; type: functional; details: Chlorocebus sabaeus
Prothrombin = Prothrombin (Homo sapiens, UniProt P00734); assay: Thrombin 1536 HTS Dose Response Confirmation. [Related pubchem assays: 1046 (Thrombin 1536 HTS; hits were confirmed in this assay)]; type: functional
[6] = Luminescence-based cell-based high throughput dose response assay to identify activators of the DAF-12 from the parasite S. stercoralis (ssDAF-12).; type: functional
HEK293 [7] = assay: NOD1 signaling inhibitors, primary screen, cell-based, luminescence, uHTS (AID 1578); type: functional; details: Homo sapiens
HEK293 [8] = assay: cells; type: functional, cell-based; details: Homo sapiens
HEK293 [9] = assay: cells; type: functional, cell-based; details: Homo sapiens; remark: listed apart in the source
[10] = target: Nucleotide-binding oligomerization domain-containing protein 2 (Homo sapiens, UniProt Q9HC29); assay: NOD2 signaling inhibitors, cell-based, luminescence, uHTS, HEK293 (AID 1566); type: functional
HEK293 [11] = assay: NOD2 signaling inhibitors in MDP-stimulated cells, cell-based, uHTS, luminescence (AID 2001); type: functional; details: Homo sapiens
HEK293 [12] = assay: cells; type: functional, cell-based; details: Homo sapiens; remark: listed apart in the source
[13] = target: Induced myeloid leukemia cell differentiation protein Mcl-1 (Homo sapiens, UniProt Q07820); type: functional
[14] = intracellular Trypanosoma cruzi inhibitors in host cells – cell-based, plate reader, cherry-pick samples, set 3, dose response (AID 651818); type: functional;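 further: compounds incubated with infected cells for about four days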
[15] = inhibitors of HIV Env-driven cell fusion, dose response, cherry-pick (AID 652057); type: functional, cell-based
[16] = NIH-3T3 fibroblast cytotoxicity, dose response, cytotoxicity control, cell-based, fluorescence, Alamar Blue, secondary assay (AID 2327); type: functional;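 further: NIH-3T3 mouse fibroblasts cultured with fluconazole at 8 µg/mL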
[17] = C. albicans growth with fluconazole, confirmation, fluorescence, retest (AID 2467); type: functional, cell-based
[18] = inhibitors of intracellular T. cruzi replication, confirmation, NIH3T3 host cells, beta-gal luminescence (AID 2044); type: functional, cell-based;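 further: intracellular parasites grown in NIH/3T3 mouse fibroblasts as host cells; luminescent beta-galactosidase reporter signal from transgenic T. cruzi replicating inside host cells; inhibitors lower the luminescence signal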
[19] = cytotoxicity toward NIH3T3 fibroblasts, dose response, counter-screen, cell-based, ATP luminescence, mouse fibroblasts (AID 2010); type: functional;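 further: cells exposed to compound for about 90 hours before reading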
Paired box protein Pax-8 = Paired box protein Pax-8 (Homo sapiens, UniProt Q06710); assay: inhibitors of PAX8-driven TPO luciferase reporter, dose response, RMG-I cells, cherry-pick (AID 687027); type: functional, cell-based;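 further: luciferase reporter driven by Pax8 target thyroperoxidase promoter measured by SteadyGlo luminescence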
[20] = non-specific cell cytotoxicity, dose response, cytotoxicity control for PAX8 inhibitor project, plate reader, dry powder samples (AID 743021); type: functional, cell-based
[21] = miR-122 activators in hepatoma reporter cells, dose response, cell-based, Huh7 psiCHECK-miR122, Renilla luciferase, cherry-picked (AID 651956); type: functional;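 further: huh7 hepatoma cells stably carrying a psiCHECK-2 miR-122 sensor plasmid; renilla luciferase signal reporting endogenous miR-122 activity after 48 h compound exposure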
[22] = HEK293T cytotoxicity, dose response, cytotoxicity control for miR-122 modulator project, cell-based, inhibitor set, cherry-pick, set 2 (AID 720697); type: functional
[23] = microbe, parasite or virus in culture; type: functional; details: Mycobacterium tuberculosis
cells [24] = type: functional, cell-based
cells [25] = type: functional, cell-based; remark: listed apart in the source
[26] = cytotoxicity in HEK-293T cells, dose response, cytotoxicity control for TCR NF-kB inhibitor project, luminescence, T-cell screen hits (AID 489026); type: functional, cell-based;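 further: cells exposed to compound about 14 hours before the viability readout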
[27] = target: T1, Microphthalmia-associated transcription factor (Homo sapiens, UniProt O75030); assay: TRPM1 promoter luciferase signal decrease, dose response, MITF inhibitor project, cell-based, SK-MEL-5, cherry-picked, set 3 (AID 493073); type: functional
T1 sequence (O75030 whole entry): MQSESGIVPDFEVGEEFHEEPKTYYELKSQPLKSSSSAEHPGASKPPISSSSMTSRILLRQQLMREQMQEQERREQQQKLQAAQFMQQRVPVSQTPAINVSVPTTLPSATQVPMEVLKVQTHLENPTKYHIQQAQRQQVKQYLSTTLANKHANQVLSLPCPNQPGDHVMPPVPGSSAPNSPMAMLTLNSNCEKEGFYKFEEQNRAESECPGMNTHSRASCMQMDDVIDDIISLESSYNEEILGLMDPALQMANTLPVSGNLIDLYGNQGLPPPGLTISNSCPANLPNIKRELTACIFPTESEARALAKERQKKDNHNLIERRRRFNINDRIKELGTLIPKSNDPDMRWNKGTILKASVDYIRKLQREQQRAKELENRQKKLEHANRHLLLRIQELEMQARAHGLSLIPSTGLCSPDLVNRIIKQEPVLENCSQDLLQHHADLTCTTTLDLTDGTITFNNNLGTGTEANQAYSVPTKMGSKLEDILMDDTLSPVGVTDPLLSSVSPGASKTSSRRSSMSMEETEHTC

HEK293 [28] = assay: inhibitors of LMP1-driven NF-kB reporter, dose response, cell-based, HEK293, luciferase, cherry-pick (AID 588343); type: functional; details: Homo sapiens
[29] = target: Glucose-6-phosphate 1-dehydrogenase (Homo sapiens, UniProt P11413); assay: human G6PD enzyme inhibitors, dose response, selectivity assay for P. falciparum G6PD inhibitor project, biochemical, fluorescence (AID 504792); type: functional
Bcl-2-related protein A1 = target: T2, Bcl-2-related protein A1 (Mus musculus, UniProt Q07440); type: functional;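 further: confirmatory dose–response counterscreen on Bfl-1, used to check hits from a UBC13 polyubiquitin inhibitor campaign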
T2 sequence (Q07440 whole entry): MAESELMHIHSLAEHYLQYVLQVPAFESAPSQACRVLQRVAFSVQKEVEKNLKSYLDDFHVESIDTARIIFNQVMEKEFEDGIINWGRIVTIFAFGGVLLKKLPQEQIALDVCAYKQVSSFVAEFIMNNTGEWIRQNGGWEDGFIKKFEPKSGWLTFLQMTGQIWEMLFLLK

[30] = cytotoxicity in HEK-293T cells, dose response, cytotoxicity control for BCR NF-kB inhibitor project, luminescence, B-cell screen hits (AID 489021); type: functional, cell-based;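 further: HEK-293T cells carrying an NF-kB luciferase reporter; cells exposed to compound for about 14 hours before viability readout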
Cytochrome P450 2C19 = Cytochrome P450 2C19 (Homo sapiens, UniProt P33261); assay: Cytochrome panel assay with activity outcomes. Panel member name: p450-cyp2c19 Compounds with AC50 equal or less than 10 uM are considered active; type: functional; details: read-out: AC50
[31] = Shn3 3'UTR reporter inhibitors, dose response, cell-based, Clone20 osteoblasts, firefly luciferase, cherry-picked (AID 624132); type: functional;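 further: firefly luciferase luminescence from reporter carrying the Shn3 3'UTR in osteoblasts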
[32] = control 3'UTR Renilla luciferase suppression, dose response, counter-screen for Shn3 inhibitor project, cell-based, Clone20-Shn3RL, cherry-picked (AID 624133); type: functional

Nucleotide-binding oligomerization domain-containing protein 2, sequence (Q9HC29 whole entry, the tested form may be a part): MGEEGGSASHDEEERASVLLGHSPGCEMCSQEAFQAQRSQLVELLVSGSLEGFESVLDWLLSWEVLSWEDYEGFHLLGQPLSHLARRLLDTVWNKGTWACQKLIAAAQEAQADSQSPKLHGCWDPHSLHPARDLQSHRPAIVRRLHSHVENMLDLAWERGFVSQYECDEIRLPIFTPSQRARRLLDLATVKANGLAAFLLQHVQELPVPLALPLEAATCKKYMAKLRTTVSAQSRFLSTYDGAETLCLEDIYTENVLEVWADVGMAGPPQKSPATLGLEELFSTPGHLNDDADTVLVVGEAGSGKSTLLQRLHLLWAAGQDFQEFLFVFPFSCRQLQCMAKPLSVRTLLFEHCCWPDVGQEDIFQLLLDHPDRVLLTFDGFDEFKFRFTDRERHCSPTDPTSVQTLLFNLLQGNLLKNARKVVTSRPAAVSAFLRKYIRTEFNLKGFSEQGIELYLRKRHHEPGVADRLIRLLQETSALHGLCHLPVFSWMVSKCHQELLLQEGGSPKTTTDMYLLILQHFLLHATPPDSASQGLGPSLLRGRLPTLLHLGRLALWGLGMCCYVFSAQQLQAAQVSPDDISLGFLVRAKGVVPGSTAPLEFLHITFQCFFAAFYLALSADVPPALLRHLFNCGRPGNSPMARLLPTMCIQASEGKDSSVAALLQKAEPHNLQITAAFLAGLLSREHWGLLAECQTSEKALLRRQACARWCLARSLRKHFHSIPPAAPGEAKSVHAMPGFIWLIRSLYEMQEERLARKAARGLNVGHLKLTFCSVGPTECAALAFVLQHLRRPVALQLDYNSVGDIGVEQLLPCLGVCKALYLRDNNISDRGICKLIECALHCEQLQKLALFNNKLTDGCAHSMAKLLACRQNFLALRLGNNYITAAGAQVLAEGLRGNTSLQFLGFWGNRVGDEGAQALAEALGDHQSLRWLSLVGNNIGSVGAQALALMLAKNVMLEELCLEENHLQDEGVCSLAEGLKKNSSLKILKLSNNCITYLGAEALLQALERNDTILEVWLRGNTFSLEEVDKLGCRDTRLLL
Induced myeloid leukemia cell differentiation protein Mcl-1, sequence (Q07820 whole entry): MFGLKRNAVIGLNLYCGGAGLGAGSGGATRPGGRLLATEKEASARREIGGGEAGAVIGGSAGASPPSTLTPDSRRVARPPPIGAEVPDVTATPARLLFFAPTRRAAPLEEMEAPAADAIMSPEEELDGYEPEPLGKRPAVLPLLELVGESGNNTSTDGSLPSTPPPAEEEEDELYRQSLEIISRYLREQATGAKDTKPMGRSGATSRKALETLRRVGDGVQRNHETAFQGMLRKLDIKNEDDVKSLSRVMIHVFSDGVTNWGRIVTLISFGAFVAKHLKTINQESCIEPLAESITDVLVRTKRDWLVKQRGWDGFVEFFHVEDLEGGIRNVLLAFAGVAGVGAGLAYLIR
Glucose-6-phosphate 1-dehydrogenase, sequence (P11413 whole entry): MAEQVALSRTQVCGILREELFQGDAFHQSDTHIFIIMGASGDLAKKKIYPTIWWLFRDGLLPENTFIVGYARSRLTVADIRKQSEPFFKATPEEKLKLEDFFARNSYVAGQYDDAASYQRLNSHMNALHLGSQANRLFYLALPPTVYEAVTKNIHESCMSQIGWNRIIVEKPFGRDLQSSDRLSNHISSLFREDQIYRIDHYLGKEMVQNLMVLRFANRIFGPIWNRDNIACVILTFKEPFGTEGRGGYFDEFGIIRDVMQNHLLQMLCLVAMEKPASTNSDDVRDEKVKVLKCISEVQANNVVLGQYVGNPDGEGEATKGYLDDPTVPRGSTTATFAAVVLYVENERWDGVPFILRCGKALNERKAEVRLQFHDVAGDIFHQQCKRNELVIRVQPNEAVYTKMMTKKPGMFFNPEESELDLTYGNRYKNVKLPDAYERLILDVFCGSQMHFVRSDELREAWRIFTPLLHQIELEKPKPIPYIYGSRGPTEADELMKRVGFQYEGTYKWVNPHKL
Cytochrome P450 2C19, sequence (P33261 whole entry): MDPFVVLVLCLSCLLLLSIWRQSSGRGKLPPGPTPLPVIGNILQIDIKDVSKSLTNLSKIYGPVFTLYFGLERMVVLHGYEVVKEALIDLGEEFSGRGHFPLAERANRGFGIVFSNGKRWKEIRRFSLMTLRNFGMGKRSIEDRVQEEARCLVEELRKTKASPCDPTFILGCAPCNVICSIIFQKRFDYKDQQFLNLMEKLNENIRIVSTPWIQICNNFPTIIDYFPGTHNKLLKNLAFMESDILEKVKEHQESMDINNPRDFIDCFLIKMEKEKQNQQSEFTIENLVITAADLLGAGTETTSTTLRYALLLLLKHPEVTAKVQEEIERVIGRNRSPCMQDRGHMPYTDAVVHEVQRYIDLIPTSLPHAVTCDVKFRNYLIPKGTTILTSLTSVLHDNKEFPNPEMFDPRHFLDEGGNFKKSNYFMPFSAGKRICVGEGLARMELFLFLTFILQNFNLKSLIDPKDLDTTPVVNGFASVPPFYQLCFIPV
Paired box protein Pax-8, sequence (Q06710 whole entry): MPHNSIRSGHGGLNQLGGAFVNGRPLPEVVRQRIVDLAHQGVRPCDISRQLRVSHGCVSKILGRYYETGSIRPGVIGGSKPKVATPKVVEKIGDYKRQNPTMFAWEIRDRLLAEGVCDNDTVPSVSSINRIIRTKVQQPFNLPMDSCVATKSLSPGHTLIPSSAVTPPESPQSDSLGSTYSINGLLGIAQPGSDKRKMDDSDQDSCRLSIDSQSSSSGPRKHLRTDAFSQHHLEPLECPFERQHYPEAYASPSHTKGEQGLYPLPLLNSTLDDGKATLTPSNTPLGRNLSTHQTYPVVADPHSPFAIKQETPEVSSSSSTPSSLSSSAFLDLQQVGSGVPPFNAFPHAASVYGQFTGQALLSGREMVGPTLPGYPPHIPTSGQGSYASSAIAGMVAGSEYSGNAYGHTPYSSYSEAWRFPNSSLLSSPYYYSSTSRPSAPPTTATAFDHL

Cc1cc(S)nc(-c2ccccn2)n1
CC50 [1]: 31.8 µM (active)

COC(=O)C[C@@H]1C[C@H]2c3cc(NS(=O)(=O)c4cccc(OC)c4)ccc3O[C@H]2[C@@H](CO)O1
AC50 [2]: 3.74 µM (active)
AC50 [3]: 66.1 µM (active)

CCC(C)Oc1ccccc1C1CC(=O)NC2=C1C(=O)CCC2 (stereo unspecified)
EC50 [4]: 12.5 µM (active)
EC50 [5]: 12.7 µM (active)

COc1cccc(-n2c(SCC(=O)c3c[nH]c4ccccc34)nc3ccccc3c2=O)c1
CC50 (Vero): > 25 µM (active)

Cc1cc(F)ccc1N1CCC(N2CCN(CCC(C)C)C(CCO)C2)CC1 (stereo unspecified)
IC50 (Prothrombin): > 50 µM (not active)

CC(=O)Nc1nc(-c2ccc(Cl)cc2)nc(C)c1C(C)=O
IC50 [6]: > 67.6 µM (inactive)

COC(=O)c1sccc1NC(=O)CSc1ccccc1NS(=O)(=O)c1cc(Cl)ccc1Cl
EC50 (HEK293 [7]): 6.42 µM (active)
IC50 (HEK293 [8]): 8.22 µM (active)
IC50 (HEK293 [9]): > 20 µM (inactive)
EC50 [10]: 6.35 µM (active)
IC50 (HEK293 [11]): 5.68 µM (active)
IC50 (HEK293 [12]): > 20 µM (inactive)

O=C(O)c1ccc(N/N=C/C=C/c2ccccc2[N+](=O)[O-])cc1
IC50 [6]: > 67.6 µM (inactive)

O=C(NCCN1CCN(Cc2ccccc2)CC1)c1cc2c(O)nc3ccccc3c2s1
EC50 [4]: 13 µM (active)
EC50 [5]: 14.3 µM (active)

COC/C=C/C1=CC2=CC(=O)C(C)(OC(=O)c3ccco3)C(=O)C2=CO1 (stereo unspecified)
IC50 [13]: 3.7 µM (active)

CC(C)(C)c1ccc(CN2N=Nc3ccccc3S2(=O)=O)cc1
IC50 [13]: 24.1 µM (active)

COc1cc(S(=O)(=O)N2CCOCC2)ccc1NC(=O)COC(=O)COc1ccccc1
IC50 (Prothrombin): 3.63 µM (active)

CC1CCN(CC(=O)Nc2ccccc2C#N)CC1
IC50 (Prothrombin): > 50 µM (not active)

C[C@H](CO)N1C[C@H](C)[C@H](CN(C)C)Oc2c(NC(=O)Nc3ccc(C(F)(F)F)cc3)cccc2C1=O
AC50 [14]: 3.27 µM (active)

Cc1ccc(CNc2nc3ccccc3n2C)cc1
IC50 [6]: > 67.5 µM (inactive)

O=C(CSc1nc2cc(Cl)c[nH]c-2n1)Nc1cccc(F)c1
CC50 [1]: > 40 µM (active)

CC(C)NC(=O)Nc1ccc2c(c1)CC(=O)N([C@H](C)CO)C[C@H](C)[C@H](CN(C)S(=O)(=O)c1cccs1)O2
AC50 [15]: 7.82 µM (active)
AC50 [2]: 4.72 µM (active)
AC50 [3]: 12.8 µM (active)

Cc1ccc(CSc2nccc(-c3c(C)nc4ccccn34)n2)cc1
CC50 [1]: 24.7 µM (active)

COc1ccc(/C=C2\SC(=S)N(CCC(=O)N3CCCCC3)C2=O)cc1
CC50 (Vero): > 25 µM (active)

Oc1ccc(CN2CCCCC2)c2cccnc12
EC50 [16]: > 150 µM (inactive)
EC50 [17]: > 38 µM (not active)
EC50 [18]: 1.78 µM (active)
EC50 [4]: 3.45 µM (active)
EC50 [19]: 11.4 µM (active)
EC50 [5]: 3 µM (active)

Cc1ccc2c(CC(=O)OCC(=O)Nc3ccc(Cl)cn3)coc2c1
AC50 (Paired box protein Pax-8): 14.2 µM (active)
AC50 [20]: 52.7 µM (active)

C/C=C/c1ccc2c(c1)O[C@H](CN(C)C(=O)c1cnccn1)[C@H](C)CN([C@@H](C)CO)S2(=O)=O
AC50 [21]: 26.6 µM (active)
AC50 [22]: 10.3 µM (active)

O=C(N/N=C/c1ccc(-c2cccc(C(F)(F)F)c2)o1)c1ccccc1O
CC50 [1]: 11.5 µM (active)

Nc1c2c(nc3ccn(Cc4ccccc4)c(=O)c13)CCC2
CC50 [23]: > 40 µM (active)

C[C@H]1CN([C@@H](C)CO)C(=O)c2cc(NS(=O)(=O)c3ccc(Cl)cc3)ccc2O[C@H]1CN(C)S(=O)(=O)c1ccc(Cl)cc1
AC50 [14]: 4.63 µM (active)

COc1cccc(/C=N/Nc2ncnc3c2ncn3Cc2ccccc2)c1O
EC50 (cells [24]): 6.75 µM (active)
EC50 (cells [25]): > 350 µM (not active)
IC50 [26]: > 80 µM (inactive)
AC50 [27]: 4.6 µM (active)
AC50 (HEK293 [28]): 4.68 µM (active)

C[C@@H]1CCCCO[C@@H](CN(C)C(=O)C2CCCCC2)[C@@H](C)CN([C@H](C)CO)C(=O)c2cc(NC(=O)Nc3ccc(C(F)(F)F)cc3)ccc2O1
AC50 [14]: 1.91 µM (active)

C[C@@H]1CN([C@@H](C)CO)C(=O)Cc2cc(NS(=O)(=O)c3cccs3)ccc2O[C@@H]1CN(C)Cc1ccc(C(=O)Nc2ccccc2N)cc1
AC50 [14]: 2.33 µM (active)

O=C(CSc1nc2ccccc2[nH]1)NC1CCCc2ccccc21 (stereo unspecified)
IC50 [29]: > 80 µM (inactive)

COc1cc2c3c(c1)c(/N=N/C(=N)S)c(O)n3C(C)(C)C=C2C
IC50 (Bcl-2-related protein A1): > 20 µM (inactive)
IC50 [30]: > 80 µM (inactive)

CC(CC(=O)Nc1ccc(Cl)c([N+](=O)[O-])c1)c1ccccc1 (stereo unspecified)
CC50 [23]: 30.7 µM (active)
AC50 (Cytochrome P450 2C19): 2.51 µM (inconclusive)

O=c1oc(-c2cccnc2)nc2ccccc12
IC50 (Prothrombin): 0.966 µM (active)

O=C(c1ccc(S(=O)(=O)c2ccc(F)cc2)c([N+](=O)[O-])c1)N1CCCCCC1
EC50 (HEK293 [7]): 4.38 µM (active)
IC50 (HEK293 [8]): 5.7 µM (active)
IC50 (HEK293 [9]): > 20 µM (inactive)
EC50 [10]: 14.8 µM (active)
IC50 (HEK293 [11]): 5.8 µM (active)
IC50 (HEK293 [12]): > 20 µM (inactive)
AC50 [31]: 2.38 µM (active)
AC50 [32]: 9.68 µM (active)

CC1(C)CC(=O)C2=C(C1)N1C(=C(C#N)C2c2ccccc2Cl)N=C(N)c2ccccc21 (stereo unspecified)
EC50 [4]: 20.4 µM (active)
EC50 [5]: 22.7 µM (active)

CSc1nc(-c2ccccc2)nc(N2CCOCC2)c1C(C)=O
IC50 (Prothrombin): > 50 µM (not active)
